Results reported in patent publication US11382918B2, “Methods for treating Huntington's Disease” (PTC Therapeutics, Inc., priority 2017, dated 2022).
Where a name gives a salt, the structure may show the parent alone.

Tested on: Endogenous Huntingtin Protein (HTT)
Assay: Endogenous Huntingtin Protein Assay (ELISA-based MSD electrochemiluminescence)
Type: cell-based
Details: Table 1
Method: Compounds of Formula (I) were tested using the Meso Scale Discovery (MSD) Assay provided in International Application No. PCT/US2016/066042, filed on Dec. 11, 2016 and claiming priority to U.S. Provisional Application 62/265,652 filed on Dec. 10, 2015, published as International Publication No. WO 2017/100726 on Jun. 15, 2017, the entire contents of which are incorporated herein by reference.
The Endogenous Huntingtin Protein assay used in Example 1 was developed using the ELISA-based MSD electrochemiluminescence assay platform.
Endogenous Huntingtin Protein Assay
Meso Scale Discovery (MSD) 96-well or 384-well plates were coated overnight at 4° C. with MW1 (expanded polyglutamine) or MAB2166 monoclonal antibody (for capture) at a concentration of 1 μg/mL in PBS (30 μL per well). Plates were then washed three times with 300 µL wash buffer (0.05% Tween-20 in PBS) and blocked (100 μL blocking buffer; 5% BSA in PBS) for 4-5 hours at room temperature with rotational shaking and then washed three times with wash buffer.
Samples (25 μL) were transferred to the antibody-coated MSD plate and incubated overnight at 4° C. After removal of the lysates, the plate was washed three times with wash buffer, and 25 μL of #5656S (Cell signaling; rabbit monoclonal) secondary antibody (diluted to 0.25 μg/mL in 0.05% Tween-20 in blocking buffer) was added to each well and incubated with shaking for 1 Hour at room temperature. Following incubation with the secondary antibody, the wells were rinsed with wash buffer after which 25 μL of goat anti-rabbit SULFO TAG secondary detection antibody (required aspect of the MSD system) (diluted to 0.25 μg/mL in 0.05% Tween-20 in blocking buffer) was added to each well and incubated with shaking for 1 hour at room temperature. After rinsing three times with wash buffer, 150 μL of read buffer T with surfactant (MSD) were added to each empty well, and the plate was imaged on a SI 6000 imager (MSD) according to manufacturers' instructions provided for 96- or 384-well plates.

Structure (SMILES)	IC50
CCN(CC)C1CCN(c2ccc3nc(-c4cc5c(C)nc(C)cn5n4)cc(=O)n3c2)CC1 [compound 451, 7-[4-(diethylamino)piperidin-1-yl]-2-(4,6-dimethylpyrazolo[1,5-a]pyrazin-2-yl)-4H-pyrido[1,2-a]pyrimidin-4-one]	3000 to 33000 nM
Cc1nc2c(F)cc(-c3cc(=O)n4cc(N5CCN[C@@H](C)C5)ccc4n3)cc2o1 [compound 306, 2-(4-fluoro-2-methyl-1,3-benzoxazol-6-yl)-7-[(3S)-3-methylpiperazin-1-yl]-4H-pyrido[1,2-a]pyrimidin-4-one]	100 to 500 nM
COc1ccc(-c2cc(=O)n3cc(N4CCC(N(C)C)CC4)cc(C)c3n2)cc1OC [compound 261, 2-(3,4-dimethoxyphenyl)-7-[4-(dimethylamino)piperidin-1-yl]-9-methyl-4H-pyrido[1,2-a]pyrimidin-4-one]	3000 to 33000 nM
O=c1cc(-c2ccc(OC(F)F)c(F)c2)nc2ccc(N3CCNCC3)cn12 [compound 838, 2-[4-(difluoromethoxy)-3-fluorophenyl]-7-(piperazin-1-yl)-4H-pyrido[1,2-a]pyrimidin-4-one]	3000 to 33000 nM
Cc1cc(-c2cc(=O)n3cc(N4CCN(C)CC4)ccc3n2)cc2cn(C)nc12 [compound 768, 2-(2,7-dimethyl-2H-indazol-5-yl)-7-(4-methylpiperazin-1-yl)-4H-pyrido[1,2-a]pyrimidin-4-one]	1000 to 3000 nM
Cc1cc2cc(-c3cc(=O)n4cc(N5CCN[C@@H](C)C5)ccc4n3)ccn2n1 [compound 856, 7-[(3S)-3-methylpiperazin-1-yl]-2-(2-methylpyrazolo[1,5-a]pyridin-5-yl)-4H-pyrido[1,2-a]pyrimidin-4-one hydrochloride (1:2)]	1000 to 3000 nM
Cn1cc2cc(-c3cc(=O)n4cc(N5CCNCC5)ncc4n3)ccc2n1 [compound 586, 2-(2-methyl-2H-indazol-5-yl)-7-(piperazin-1-yl)-4H-pyrazino[1,2-a]pyrimidin-4-one]	3000 to 33000 nM
Cn1ncc2cc(-c3cc(=O)n4cc(N5CCNCC5)ccc4n3)ccc21 [compound 490, 2-(1-methyl-1H-indazol-5-yl)-7-(piperazin-1-yl)-4H-pyrido[1,2-a]pyrimidin-4-one]	3000 to 33000 nM
Cc1cn2cc(-c3cc(=O)n4cc(C5CCNCC5)ccc4n3)ccc2n1 [compound 438, 2-(2-methylimidazo[1,2-a]pyridin-6-yl)-7-(piperidin-4-yl)-4H-pyrido[1,2-a]pyrimidin-4-one]	500 to 1000 nM
Cc1nc2c(F)cc(-c3cc(=O)n4cc(N5CCNCC5)ccc4n3)cc2o1 [compound 305, 2-(4-fluoro-2-methyl-1,3-benzoxazol-6-yl)-7-(piperazin-1-yl)-4H-pyrido[1,2-a]pyrimidin-4-one]	100 to 500 nM
Cc1cn2cc(-c3cc(=O)n4cc(N5CCN[C@H](C)C5)ccc4n3)cc2c(C)n1 [compound 713, 2-(1,3-dimethylpyrrolo[1,2-a]pyrazin-7-yl)-7-[(3R)-3-methylpiperazin-1-yl]-4H-pyrido[1,2-a]pyrimidin-4-one]	100 to 500 nM
CCc1nc(C)cn2nc(-c3cc(=O)n4cc(C5CCNCC5)ccc4n3)cc12 [compound 656, 2-(4-ethyl-6-methylpyrazolo[1,5-a]pyrazin-2-yl)-7-(piperidin-4-yl)-4H-pyrido[1,2-a]pyrimidin-4-one]	100 to 500 nM
Cc1cc(N2CCN[C@H](C)C2)cn2c(=O)cc(-c3ccc4nn(C)cc4c3)nc12 [compound 755, 9-methyl-2-(2-methyl-2H-indazol-5-yl)-7-[(3R)-3-methylpiperazin-1-yl]-4H-pyrido[1,2-a]pyrimidin-4-one]	1000 to 3000 nM
Cc1cn2nc(-c3cc(=O)n4cc(N5CCN(C)CC5)ccc4n3)cc2c(C2CC2)n1 [compound 684, 2-(4-cyclopropyl-6-methylpyrazolo[1,5-a]pyrazin-2-yl)-7-(4-methylpiperazin-1-yl)-4H-pyrido[1,2-a]pyrimidin-4-one]	3000 to 33000 nM
Cc1cn2nc(-c3cc(=O)n4cc(N5C[C@@H]6C[C@H]5CN6C)ccc4n3)cc2c(C)n1 [compound 400, 2-(4,6-dimethylpyrazolo[1,5-a]pyrazin-2-yl)-7-[(1S,4S)-5-methyl-2,5-diazabicyclo[2.2.1]hept-2-yl]-4H-pyrido[1,2-a]pyrimidin-4-one]	3000 to 33000 nM
CCc1nc(C)cn2nc(-c3cc(=O)n4cc(C5CCNCC5)cc(C)c4n3)cc12 [compound 771, 2-(4-ethyl-6-methylpyrazolo[1,5-a]pyrazin-2-yl)-9-methyl-7-(piperidin-4-yl)-4H-pyrido[1,2-a]pyrimidin-4-one]	500 to 1000 nM

Structure (SMILES)	IC50
Cc1nc(C2CCNCC2)cn2c(=O)cc(-c3ccc4nn(C)cc4c3)nc12 [compound 796, 9-methyl-2-(2-methyl-2H-indazol-5-yl)-7-(piperidin-4-yl)-4H-pyrazino[1,2-a]pyrimidin-4-one]	< 100 nM
Cc1cn2nc(-c3cc(=O)n4cc(C5CCNCC5)ccc4n3)cc2c(C)n1 [compound 452, 2-(4,6-dimethylpyrazolo[1,5-a]pyrazin-2-yl)-7-(piperidin-4-yl)-4H-pyrido[1,2-a]pyrimidin-4-one]	100 to 500 nM
CCN1CCC(c2cn3c(=O)cc(-c4cc(C)c5nn(C)cc5c4)nc3c(C)n2)CC1 [compound 874, 2-(2,7-dimethyl-2H-indazol-5-yl)-7-(1-ethylpiperidin-4-yl)-9-methyl-4H-pyrazino[1,2-a]pyrimidin-4-one hydrochloride (1:1)]	100 to 500 nM
Cc1nc(-c2cc(=O)n3cc(C4=CCNCC4)ccc3n2)cc2cnn(C)c12 [compound 861, 2-(1,7-dimethyl-1H-pyrazolo[3,4-c]pyridin-5-yl)-7-(1,2,3,6-tetrahydropyridin-4-yl)-4H-pyrido[1,2-a]pyrimidin-4-one hydrochloride (1:2)]	3000 to 33000 nM
C[C@H]1CN(c2ccc3nc(-c4cnn(C)c4)cc(=O)n3c2)CCN1 [compound 191, 7-[(3S)-3-methylpiperazin-1-yl]-2-(1-methyl-1H-pyrazol-4-yl)-4H-pyrido[1,2-a]pyrimidin-4-one]	3000 to 33000 nM
Cc1nc2ccc(-c3cc(=O)n4cc(N5CCNC(C)(C)C5)ccc4n3)cc2o1 [compound 194, 7-(3,3-dimethylpiperazin-1-yl)-2-(2-methyl-1,3-benzoxazol-6-yl)-4H-pyrido[1,2-a]pyrimidin-4-one]	3000 to 33000 nM
CCN1CCC(c2cn3c(=O)cc(-c4cc(F)c5nc(C)cn5c4)nc3c(C)n2)CC1 [compound 877, 7-(1-ethylpiperidin-4-yl)-2-(8-fluoro-2-methylimidazo[1,2-a]pyridin-6-yl)-9-methyl-4H-pyrazino[1,2-a]pyrimidin-4-one]	< 100 nM
Cc1nc2ccc(-c3cc(=O)n4cc(C5=CCNCC5)ncc4n3)cc2o1 [compound 421, 2-(2-methyl-1,3-benzoxazol-6-yl)-7-(1,2,3,6-tetrahydropyridin-4-yl)-4H-pyrazino[1,2-a]pyrimidin-4-one hydrochloride(1:1)]	3000 to 33000 nM
CN1CCC(c2ccc3nc(-c4ccc5nn(C)cc5c4)cc(=O)n3c2)CC1 [compound 578, 2-(2-methyl-2H-indazol-5-yl)-7-(1-methylpiperidin-4-yl)-4H-pyrido[1,2-a]pyrimidin-4-one]	3000 to 33000 nM
CCc1nc(C)cn2nc(-c3cc(=O)n4cc(C5=CCNCC5)cc(C)c4n3)cc12 [compound 773, 2-(4-ethyl-6-methylpyrazolo[1,5-a]pyrazin-2-yl)-9-methyl-7-(1,2,3,6-tetrahydropyridin-4-yl)-4H-pyrido[1,2-a]pyrimidin-4-one]	3000 to 33000 nM
CCc1nc(C)cn2nc(-c3cc(=O)n4cc(N5CCN(CCO)[C@H](C)C5)ccc4n3)cc12 [compound 632, 2-(4-ethyl-6-methylpyrazolo[1,5-a]pyrazin-2-yl)-7-[(3R)-4-(2-hydroxyethyl)-3-methylpiperazin-1-yl]-4H-pyrido[1,2-a]pyrimidin-4-one]	1000 to 3000 nM
Cc1cn(-c2cc(=O)n3cc(N4CCNCC4)ccc3n2)cn1 [compound 179, 2-(4-methyl-1H-imidazol-1-yl)-7-(piperazin-1-yl)-4H-pyrido[1,2-a]pyrimidin-4-one]	3000 to 33000 nM
Cc1nc2c(F)cc(-c3cc(=O)n4cc(N5CCN(C)CC5)ccc4n3)cc2o1 [compound 308, 2-(4-fluoro-2-methyl-1,3-benzoxazol-6-yl)-7-(4-methylpiperazin-1-yl)-4H-pyrido[1,2-a]pyrimidin-4-one]	500 to 1000 nM
Cc1cn2nc(-c3cc(=O)n4cc(N5CCC(N6CCOCC6)CC5)ccc4n3)cc2c(C)n1 [compound 428, 2-(4,6-dimethylpyrazolo[1,5-a]pyrazin-2-yl)-7-[4-(morpholin-4-yl)piperidin-1-yl]-4H-pyrido[1,2-a]pyrimidin-4-one]	3000 to 33000 nM
Cc1cn2nc(-c3cc(=O)n4cc(C5CCN(C6CC6)CC5)ccc4n3)cc2c(C)n1 [compound 641, 7-(1-cyclopropylpiperidin-4-yl)-2-(4,6-dimethylpyrazolo[1,5-a]pyrazin-2-yl)-4H-pyrido[1,2-a]pyrimidin-4-one]	3000 to 33000 nM
